{"source": "paper PMC11225352", "about": "“A multicenter, randomized, double-blind, placebo-controlled ascending dose study to evaluate the safety, tolerability, pharmacokinetics (PK) and pharmacodynamic (PD) effects of Posiphen in subjects with early Alzheimer’s Disease” (Alzheimer's Research & Therapy, 2024)", "key": {"[1]": {"test": "Safety and tolerability (adverse events, vital signs, EKG, laboratory tests)", "type": "in vivo, human", "procedure": "(§1) Safety measures included adverse events, vital signs, EKG and laboratory tests. The Mini-Mental State Examination (MMSE), Alzheimer’s Disease Assessment Scale-cognitive (ADAS-cog12) and Neuropsychiatric Inventory (NPI) were used as cognitive and behavioral outcomes,.\nA prespecified Statistical Analysis Plan (SAP) was prepared and finalized before the database lock occurred. For safety and tolerability, frequencies of adverse events, serious adverse events and laboratory abnormalities between the participants across the three groups are compared, using Pearson’s χ [2] or ANOVA, as appropriate. Plasma concentration-time data are analyzed by non-compartmental methods using WinNonlin version 6.2.1 or greater. Calculations are based on the actual sampling times recorded during the study. For PK analysis, only the subjects receiving Posiphen are included."}, "sAPPβ": {"tested_on": "sAPPβ", "test": "CSF sAPPβ level, screening to day 21 (MSD immunoassay)", "type": "in vivo, human", "conditions": "ANOVA with age and sex as covariates; p = 0.16", "procedure": "(§2) For biochemical analysis to derive data for SILK, ^13C6-leucine was analyzed in plasma and CSF by mass spectrometry, and Aβ peptides in CSF were analyzed by immunoprecipitation-mass spectrometry (IP-MS) as previously described, by C2N Diagnostics (St Louis, MO). CSF levels of sAPPα, sAPPβ, Aβ38, 40 and 42 were analyzed by the ADCS Biomarker Core using Mesoscale Discovery (MSD) electrochemiluminescent assays (Mesoscale Discovery, Rockville, MD). Levels of Posiphen and its N1 and N8 metabolites in plasma and CSF were measured by Charles River Laboratories (Montreal, CA) by high-performance liquid chromatographic mass spectrometry, with use of deuterated Posiphen (procured by Charles River Laboratories) as an internal standard.\n(§3) Changes in CSF biomarkers from the screening to confinement (sample at time of placement of catheter) were compared in the treatment and placebo groups by ANOVA, with models that included age, sex and baseline MMSE, and further analysis stratified by treatment dose. A similar approach was taken to analyze changes in MMSE, ADAS-cog and NPI. Data were analyzed using R (version 4.2.2)."}, "Aβ38": {"tested_on": "Aβ38", "test": "SILK analysis of CSF Aβ38 (fractional synthesis rate)", "type": "in vivo, human", "conditions": "after 21 days", "procedure": "as §2\n(§4) For SILK, the fraction of labeled Aβ for Aβ38, 40, and 42 during 36 h after administration of study drug for each subject was calculated, as described. The FSR measures were calculated by fitting a line to the upslope of the CSF Aβ labeling data. It was assumed that the upslope occurred between hours 6–16 h after the start of confinement. […] The percentage of newly synthesized and degraded Aβ was estimated over 36 h by multiplying the […] concentration of Aβ measured at the start of confinement (i.e. at catheter placement; time = 0) by the percentage of Aβ that contains ^13C6-leucine at each time point. […]"}, "Aβ42": {"tested_on": "Aβ42", "test": "SILK analysis of CSF Aβ42 (fractional synthesis rate)", "type": "in vivo, human", "conditions": "after 21 days", "procedure": "as §2, §4"}, "APP mRNA": {"tested_on": "APP mRNA", "design": "method as in PMID 20558735, PMID 22693681", "conditions": "resulting in decreased production of APP and Aβ; cited from earlier work"}, "[2]": {"test": "Cognitive and behavioral outcomes (ADAS-cog12, MMSE, NPI)", "type": "in vivo, human", "excerpt": "The screening visit included history, examination, review of medical records and medications, vital signs, physical and neurological examination, cognitive testing with the MMSE and Logical Memory test (Wechsler Memory Scale-revised), EKG, blood draw for routine laboratory tests, lumbar puncture and if needed, brain MRI. If eligible, participants underwent a baseline visit, with cognitive assessment using the MMSE and ADAS-cog12, behavioral assessments, Research Satisfaction Survey, safety assessments, and review of concurrent medications and adverse events, and they received a supply of the study drug (or placebo), which they started the day after the baseline visit. A telephone assessment was done at day 14 after baseline, to assess adverse events, concomitant medication changes and remind participants/study partners about the confinement visit. A pre-confinement visit took place 1–3 days before the confinement visit, following treatment for 20 days, and included physical and neurological examination, cognitive and behavioral assessments (see below), safety assessments (including clinical safety labs), and a review of compliance, concurrent medications and adverse events. The study drug or placebo was continued until the day before the confinement visit.\nas §1, §3"}}, "data": [{"compound": "CN1CC[C@]2(C)c3cc(OC(=O)Nc4ccccc4)ccc3N(C)[C@H]12", "note": "[Posiphen]", "values": [{"measurement": "ECG parameters", "setting": "[1]; Posiphen vs placebo groups", "value": "no significant changes or differences"}, {"measurement": "laboratory safety parameters", "setting": "[1]; Posiphen vs placebo groups", "value": "no clinically significant changes"}, {"measurement": "safety and tolerability", "setting": "[1]; early AD, 60 mg once, twice or three times per day for 21–23 days, 11 received Posiphen, 7 placebo", "value": "safe and was generally well tolerated"}, {"measurement": "adverse events (AEs), frequency vs placebo", "setting": "[1]; early AD, 21–23 days", "value": "did not differ in frequency between the groups"}, {"measurement": "vital signs", "setting": "[1]; early AD, 21–23 days", "value": "no significant changes"}, {"measurement": "CSF sAPPβ, Treatment difference (Posiphen – placebo)", "setting": "sAPPβ", "value": "47.9 (31.6) p = 0.16 pg/mL"}, {"measurement": "effect on FSR estimates for Aβ38 vs. placebo", "setting": "Aβ38", "value": "no significant effect"}, {"measurement": "effect on FSR estimates for Aβ42 vs. placebo", "setting": "Aβ42", "value": "no significant effect"}, {"measurement": "translation of APP mRNA", "setting": "APP mRNA", "value": "decreased"}, {"measurement": "NPI, mean change from baseline to pre-confinement", "setting": "[2]; Posiphen (n = 11), mITT, baseline 8.36 ± 9.52", "value": "-0.45 ± 7.01"}, {"measurement": "MMSE, Pre-confinement", "setting": "[2]; Posiphen (n = 11), mITT, baseline 24.36 ± 2.8", "value": "24.18 ± 2.52"}, {"measurement": "ADAS-Cog12, Pre-confinement", "setting": "[2]; Posiphen (n = 11), mITT, baseline 25.73 ± 8.76", "value": "25.18 ± 5.33"}, {"measurement": "ADAS-cog, MMSE or NPI total scores, change from baseline to pre-confinement visit", "setting": "[2]; Posiphen or placebo groups", "value": "no significant changes"}, {"measurement": "MMSE, Mean change", "setting": "[2]; baseline to pre-confinement, Posiphen (n = 11), placebo 1.14 ± 2.12", "value": "-0.18 ± 2.09"}, {"measurement": "ADAS-Cog12, Mean change", "setting": "[2]; baseline to pre-confinement, Posiphen (n = 11), placebo -1.57 ± 5.19", "value": "-0.55 ± 6.04"}, {"measurement": "ADAS-cog change, t", "setting": "[2]; contrast 60 mg – placebo, multiple linear regression (age, sex, APOE genotype, baseline score, arm), p 0.68", "value": 0.42}, {"measurement": "MMSE change, t", "setting": "[2]; contrast 60 mg – placebo, multiple linear regression, p 0.006", "value": -3.32}, {"measurement": "NPI change, t", "setting": "[2]; contrast 60 mg – placebo, multiple linear regression, p 0.51", "value": 0.68}, {"measurement": "NPI change, t", "setting": "[2]; contrast 120 mg - placebo, multiple linear regression, p 0.02", "value": 2.73}, {"measurement": "MMSE change, t", "setting": "[2]; contrast 120 mg - placebo, multiple linear regression, p 0.24", "value": 1.2}, {"measurement": "ADAS-cog change, t", "setting": "[2]; contrast 120 mg - placebo, multiple linear regression, p 0.30", "value": 1.1}, {"measurement": "ADAS-cog change, t", "setting": "[2]; contrast 180 mg - placebo, multiple linear regression, p 0.77", "value": "029"}, {"measurement": "NPI change, t", "setting": "[2]; contrast 180 mg - placebo, multiple linear regression, p 0.91", "value": 0.12}, {"measurement": "NPI, Treatment difference (Posiphen – placebo)", "setting": "[2]; mITT, p = 0.11", "value": "7.10 ± 4.07", "unit": "p = 0.11"}, {"measurement": "ADAS-Cog12, Treatment difference (Posiphen – placebo)", "setting": "[2]; mITT, p = 0.32", "value": "3.00 ± 2.94", "unit": "p = 0.32"}, {"measurement": "MMSE, Treatment difference (Posiphen – placebo)", "setting": "[2]; mITT, p= 0.23", "value": "-1.6 ± 1.28", "unit": "p= 0.23"}]}]}
